Data set [1] addresses B2 bradykinin receptor (Homo sapiens) (UniProt P30411). The following applies: Compound concentration 10.0 uM.
Data set [2] has as its system Bacteria. In words: Beta-Lactamase Eurofins-Panlabs enzyme assay. Also noted: substrate with concentration. To be noted: Compound concentration 10.0 uM.
Data set [3] has as its target Glucocorticoid receptor (Homo sapiens) (UniProt P04150). To be noted: Compound concentration 10.0 uM.
Data set [4] addresses T1, Muscarinic acetylcholine receptor M1 (Homo sapiens) (UniProt P11229).
T1 sequence (whole entry): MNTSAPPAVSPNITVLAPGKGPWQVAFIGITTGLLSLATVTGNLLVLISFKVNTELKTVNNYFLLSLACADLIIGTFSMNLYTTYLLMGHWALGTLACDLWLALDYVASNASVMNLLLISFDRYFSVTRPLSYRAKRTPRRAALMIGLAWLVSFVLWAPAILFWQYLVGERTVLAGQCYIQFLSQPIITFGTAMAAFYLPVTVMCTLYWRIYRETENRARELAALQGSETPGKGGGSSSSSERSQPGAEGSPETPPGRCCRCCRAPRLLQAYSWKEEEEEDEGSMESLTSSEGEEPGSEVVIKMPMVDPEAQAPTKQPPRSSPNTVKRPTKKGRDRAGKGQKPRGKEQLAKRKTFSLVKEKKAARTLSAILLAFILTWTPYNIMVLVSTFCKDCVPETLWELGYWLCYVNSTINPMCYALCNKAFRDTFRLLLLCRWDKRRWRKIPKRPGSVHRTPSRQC
The following applies: Compound concentration 10.0 uM.

In data set [5] the target is Insulin receptor (Homo sapiens) (UniProt P06213). The following applies: Rattus norvegicus; Compound concentration 10.0 uM.
Data set [6] has as its target CYP2C9 (Homo sapiens, UniProt P11712). The data set is described as follows: CYP450, 2C9 Eurofins-Panlabs enzyme assay. The following applies: compound concentration 10 uM.
In data set [7] the target is 5-hydroxytryptamine receptor 6 (Homo sapiens) (UniProt P50406). In words: Inhibition of Serotonin (5-Hydroxytryptamine) 5-HT6 at 10 µM in the Eurofins-Panlabs radioligand binding assay (Eurofins_assay_272200). To be noted: Compound concentration 10.0 uM.
Chain of 5-hydroxytryptamine receptor 6 (Homo sapiens) (P50406 whole entry): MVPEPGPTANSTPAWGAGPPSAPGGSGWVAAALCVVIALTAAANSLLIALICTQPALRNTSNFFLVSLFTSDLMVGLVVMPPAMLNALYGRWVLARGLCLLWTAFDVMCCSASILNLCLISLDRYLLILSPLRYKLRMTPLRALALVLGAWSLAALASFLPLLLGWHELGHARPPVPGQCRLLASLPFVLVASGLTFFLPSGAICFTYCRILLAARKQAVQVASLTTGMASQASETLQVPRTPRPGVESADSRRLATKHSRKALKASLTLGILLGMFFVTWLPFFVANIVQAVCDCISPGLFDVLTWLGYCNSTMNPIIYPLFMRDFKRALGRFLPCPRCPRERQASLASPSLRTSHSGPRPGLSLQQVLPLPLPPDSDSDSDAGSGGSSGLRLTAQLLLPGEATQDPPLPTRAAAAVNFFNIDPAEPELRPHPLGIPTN
The target in data set [8] is Cannabinoid receptor 1 (Homo sapiens, UniProt P21554). The data set is described as follows: Inhibition of Cannabinoid CB1 at compound concentration of 10.0 uM in the Eurofins-Panlabs radioligand binding assay (Eurofins_assay_217030). Further details: ligand concentration 2 nM, non-specific ligand with concentration 10 uM R(+)-WIN-55,212-2, incubation time 90 min, incubation temperature 37 C; call rule not given here.
Chain of Cannabinoid receptor 1 (P21554 whole entry): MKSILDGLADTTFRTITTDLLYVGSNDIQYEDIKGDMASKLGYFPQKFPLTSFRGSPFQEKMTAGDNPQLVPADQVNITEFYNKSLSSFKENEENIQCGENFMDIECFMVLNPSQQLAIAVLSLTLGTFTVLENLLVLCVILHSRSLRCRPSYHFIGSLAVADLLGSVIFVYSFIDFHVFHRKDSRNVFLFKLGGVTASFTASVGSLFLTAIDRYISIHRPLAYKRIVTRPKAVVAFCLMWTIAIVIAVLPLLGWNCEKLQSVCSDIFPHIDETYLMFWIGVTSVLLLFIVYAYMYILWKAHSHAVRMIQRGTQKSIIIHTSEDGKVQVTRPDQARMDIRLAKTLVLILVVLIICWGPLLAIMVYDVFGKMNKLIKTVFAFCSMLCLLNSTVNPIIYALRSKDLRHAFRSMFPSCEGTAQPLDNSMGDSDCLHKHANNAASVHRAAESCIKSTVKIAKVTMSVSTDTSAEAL

The nature of data set [9]: Inhibition of Platelet-Derived Growth Factor (PDGF) at 10 µM in the Eurofins-Panlabs radioligand binding assay (Eurofins_assay_265200). The following applies: Compound concentration 10 uM; Detection method Radioligand Binding; Incubation temperature 25 °C; Incubation time 45 min; Ligand [3H]PDGF; Ligand concentration 0.02 nM; Non-specific ligand with concentration 10 nM PDGF; Source of protein Swiss mouse 3T3 embryo cells.

The target of data set [10] is Monoamine oxidase A (MAO-A) (Homo sapiens, UniProt P21397). In words: Inhibition of Monoamine Oxidase MAO-A at compound concentration of 10.0 uM in the Eurofins-Panlabs enzyme assay (Eurofins_assay_140010). Further details: substrate with concentration 50 uM Kynuramine, incubation time 60 min, incubation temperature 37 C. To be noted: recombinant human MAO-A expressed in insect Hi5 cells, probe Kynuramine, 50 uM, compound concentration 10 uM.
Chain of Monoamine oxidase A (MAO-A) (P21397 whole entry): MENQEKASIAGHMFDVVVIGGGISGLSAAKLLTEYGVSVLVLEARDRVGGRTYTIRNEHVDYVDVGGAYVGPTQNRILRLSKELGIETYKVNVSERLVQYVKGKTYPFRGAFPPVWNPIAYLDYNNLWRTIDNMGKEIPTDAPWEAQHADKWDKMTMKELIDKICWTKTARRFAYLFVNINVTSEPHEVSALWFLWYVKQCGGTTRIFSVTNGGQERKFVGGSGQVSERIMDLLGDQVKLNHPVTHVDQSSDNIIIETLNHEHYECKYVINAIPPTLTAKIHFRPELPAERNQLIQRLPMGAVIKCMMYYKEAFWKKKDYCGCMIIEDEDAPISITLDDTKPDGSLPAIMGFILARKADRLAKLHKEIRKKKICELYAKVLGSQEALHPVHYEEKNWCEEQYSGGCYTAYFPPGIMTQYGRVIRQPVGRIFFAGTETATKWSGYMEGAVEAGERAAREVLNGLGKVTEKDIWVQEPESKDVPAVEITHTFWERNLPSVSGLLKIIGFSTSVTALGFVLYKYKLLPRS

For data set [11], the target named is C-C chemokine receptor type 5 (Homo sapiens) (UniProt P51681). The data set is described as follows: Inhibition of Chemokine CCR5 at 10 µM in the Eurofins-Panlabs radioligand binding assay (Eurofins_assay_217720). To be noted: Compound concentration 10.0 uM.
For data set [12], the target named is Sodium-dependent noradrenaline transporter (Homo sapiens) (UniProt P23975). To be noted: Compound concentration 10.0 uM.
Chain of Sodium-dependent noradrenaline transporter (Homo sapiens) (P23975 whole entry): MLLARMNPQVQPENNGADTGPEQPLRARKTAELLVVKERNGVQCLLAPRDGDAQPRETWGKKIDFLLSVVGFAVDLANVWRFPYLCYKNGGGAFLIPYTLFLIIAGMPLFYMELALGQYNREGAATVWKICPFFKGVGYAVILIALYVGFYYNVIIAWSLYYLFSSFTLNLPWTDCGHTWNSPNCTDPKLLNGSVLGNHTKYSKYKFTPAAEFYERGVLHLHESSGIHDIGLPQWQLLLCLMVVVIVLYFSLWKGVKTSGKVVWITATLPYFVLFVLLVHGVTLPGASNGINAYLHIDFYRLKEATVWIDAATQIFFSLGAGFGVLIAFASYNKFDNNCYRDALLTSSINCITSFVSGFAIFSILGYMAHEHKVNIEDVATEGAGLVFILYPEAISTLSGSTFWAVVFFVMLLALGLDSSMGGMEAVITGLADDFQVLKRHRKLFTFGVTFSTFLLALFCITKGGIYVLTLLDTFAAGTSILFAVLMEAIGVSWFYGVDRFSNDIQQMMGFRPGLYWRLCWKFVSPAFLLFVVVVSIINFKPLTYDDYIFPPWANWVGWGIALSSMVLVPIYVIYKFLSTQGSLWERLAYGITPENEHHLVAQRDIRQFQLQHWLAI
Data set [13] has as its target Adenosine receptor A1 (Homo sapiens) (UniProt P30542). To be noted: Compound concentration 10.0 uM.
The target of data set [14] is Beta-1 adrenergic receptor (Homo sapiens) (UniProt P08588). The following applies: Compound concentration 10.0 uM.
Chain of Beta-1 adrenergic receptor (Homo sapiens) (P08588 whole entry, looked up): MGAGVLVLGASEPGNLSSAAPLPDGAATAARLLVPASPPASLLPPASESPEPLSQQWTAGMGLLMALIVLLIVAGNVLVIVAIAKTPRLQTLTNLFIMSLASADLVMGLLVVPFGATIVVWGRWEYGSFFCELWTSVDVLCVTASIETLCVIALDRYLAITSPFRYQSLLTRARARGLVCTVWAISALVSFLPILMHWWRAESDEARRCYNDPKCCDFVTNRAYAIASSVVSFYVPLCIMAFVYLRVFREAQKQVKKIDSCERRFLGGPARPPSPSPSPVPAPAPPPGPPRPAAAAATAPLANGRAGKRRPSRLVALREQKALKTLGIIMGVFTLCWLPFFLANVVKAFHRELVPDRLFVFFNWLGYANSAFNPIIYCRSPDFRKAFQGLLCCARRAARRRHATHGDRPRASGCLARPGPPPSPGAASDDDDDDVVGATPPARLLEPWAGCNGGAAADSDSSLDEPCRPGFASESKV
Data set [15] concerns the target Mitogen-activated protein kinase 1 (Homo sapiens) (UniProt P28482). The data set is described as follows: Inhibition of Protein Serine/Threonine Kinase, MAPK1 (ERK2) at 10 µM in the Eurofins-Panlabs enzyme assay (Eurofins_assay_171120). Further details: substrate with concentration. To be noted: Compound concentration 10.0 uM.
Data set [16] concerns the target Tyrosine-protein kinase Lck (Homo sapiens) (UniProt P06239). In words: Inhibition of Protein Tyrosine Kinase, LCK at 10 µM in the Eurofins-Panlabs enzyme assay (Eurofins_assay_176020). The following applies: Compound concentration 10.0 uM.
Data set [17] has as its target Glutamate receptor 2 (Homo sapiens) (UniProt P42262). To be noted: Rattus norvegicus; Compound concentration 10.0 uM.
The target of data set [18] is Beta-2 adrenergic receptor (Homo sapiens) (UniProt P07550). To be noted: Compound concentration 10.0 uM.
Data set [19] has as its target 5-hydroxytryptamine receptor 4 (Homo sapiens) (UniProt Q13639). In words: Inhibition of Serotonin (5-Hydroxytryptamine) 5-HT4 at 10 µM in the Eurofins-Panlabs radioligand binding assay (Eurofins_assay_272000). The following applies: Cavia porcellus; Compound concentration 10.0 uM.
The target of data set [20] is CYP2D6 (Homo sapiens, UniProt P10635). The data set is described as follows: CYP450, 2D6 Eurofins-Panlabs enzyme assay. To be noted: compound concentration 10 uM.
Chain of CYP2D6 (P10635 whole entry): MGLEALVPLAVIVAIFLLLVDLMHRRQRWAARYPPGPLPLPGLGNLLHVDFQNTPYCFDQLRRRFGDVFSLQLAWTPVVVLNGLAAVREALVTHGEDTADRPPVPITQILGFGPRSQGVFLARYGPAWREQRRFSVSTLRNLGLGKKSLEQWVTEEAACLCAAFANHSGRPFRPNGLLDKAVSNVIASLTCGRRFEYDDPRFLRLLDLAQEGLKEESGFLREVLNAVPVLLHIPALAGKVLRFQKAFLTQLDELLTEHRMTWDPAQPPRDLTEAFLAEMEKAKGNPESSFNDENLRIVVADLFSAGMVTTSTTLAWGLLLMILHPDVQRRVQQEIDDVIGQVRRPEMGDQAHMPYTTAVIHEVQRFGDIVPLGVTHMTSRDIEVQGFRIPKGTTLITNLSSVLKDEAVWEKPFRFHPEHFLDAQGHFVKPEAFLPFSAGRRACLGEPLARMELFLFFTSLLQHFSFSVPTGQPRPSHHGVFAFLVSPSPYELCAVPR
In data set [21] the target is T2, Alpha-2A adrenergic receptor (Homo sapiens) (UniProt P08913).
T2 sequence (whole entry): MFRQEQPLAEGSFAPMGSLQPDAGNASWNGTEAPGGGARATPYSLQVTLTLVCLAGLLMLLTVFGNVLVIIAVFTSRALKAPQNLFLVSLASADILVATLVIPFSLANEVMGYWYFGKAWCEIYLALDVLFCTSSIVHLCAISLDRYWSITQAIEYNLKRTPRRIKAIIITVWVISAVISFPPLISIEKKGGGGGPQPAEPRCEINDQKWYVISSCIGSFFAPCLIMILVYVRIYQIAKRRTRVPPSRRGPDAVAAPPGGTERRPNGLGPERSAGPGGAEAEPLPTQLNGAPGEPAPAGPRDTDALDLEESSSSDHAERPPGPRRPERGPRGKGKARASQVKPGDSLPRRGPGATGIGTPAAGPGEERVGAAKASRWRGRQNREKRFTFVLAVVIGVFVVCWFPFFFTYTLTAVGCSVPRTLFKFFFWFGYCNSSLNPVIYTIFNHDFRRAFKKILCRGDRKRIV
The data set is described as follows: Adrenergic alpha2A Eurofins-Panlabs radioligand binding assay. Also noted: ligand concentration 1 nM, non-specific ligand with concentration 10 µM WB-4101, incubation time 60 min, incubation temperature 25 °C. To be noted: Compound concentration 10.0 uM.

pKi: −log10 of the molar value.

Broadly, the inhibition is the drop in the measured response relative to a control, in per cent. Broadly, the pKi is −log10 of the Ki, conventionally taken in molar units.

Chain of CYP2C9 (P11712 whole entry): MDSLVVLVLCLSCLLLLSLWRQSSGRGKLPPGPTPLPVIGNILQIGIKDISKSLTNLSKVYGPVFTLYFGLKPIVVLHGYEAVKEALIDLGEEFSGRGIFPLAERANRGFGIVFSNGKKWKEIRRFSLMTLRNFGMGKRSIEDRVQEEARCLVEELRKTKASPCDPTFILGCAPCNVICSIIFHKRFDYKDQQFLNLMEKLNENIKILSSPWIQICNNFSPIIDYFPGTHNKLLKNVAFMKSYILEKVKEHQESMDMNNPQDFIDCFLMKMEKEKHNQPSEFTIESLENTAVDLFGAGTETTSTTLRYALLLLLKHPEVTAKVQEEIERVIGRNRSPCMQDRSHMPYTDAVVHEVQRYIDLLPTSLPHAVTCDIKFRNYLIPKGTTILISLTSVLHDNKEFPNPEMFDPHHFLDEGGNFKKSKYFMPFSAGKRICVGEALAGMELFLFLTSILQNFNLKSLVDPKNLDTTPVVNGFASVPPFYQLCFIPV
Chain of 5-hydroxytryptamine receptor 4 (Homo sapiens) (Q13639 whole entry): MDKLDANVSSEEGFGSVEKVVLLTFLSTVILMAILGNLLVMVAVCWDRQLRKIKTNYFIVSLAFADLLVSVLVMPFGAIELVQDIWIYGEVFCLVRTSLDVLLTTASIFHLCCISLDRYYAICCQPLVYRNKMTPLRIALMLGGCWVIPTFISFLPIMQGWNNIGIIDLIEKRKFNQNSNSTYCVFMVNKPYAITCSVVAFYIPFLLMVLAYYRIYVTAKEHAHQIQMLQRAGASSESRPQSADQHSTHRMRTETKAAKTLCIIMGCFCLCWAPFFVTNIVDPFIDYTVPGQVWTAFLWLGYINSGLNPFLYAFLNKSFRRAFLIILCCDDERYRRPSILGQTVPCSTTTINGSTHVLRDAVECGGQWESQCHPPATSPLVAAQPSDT
Chain of Adenosine receptor A1 (Homo sapiens) (P30542 whole entry): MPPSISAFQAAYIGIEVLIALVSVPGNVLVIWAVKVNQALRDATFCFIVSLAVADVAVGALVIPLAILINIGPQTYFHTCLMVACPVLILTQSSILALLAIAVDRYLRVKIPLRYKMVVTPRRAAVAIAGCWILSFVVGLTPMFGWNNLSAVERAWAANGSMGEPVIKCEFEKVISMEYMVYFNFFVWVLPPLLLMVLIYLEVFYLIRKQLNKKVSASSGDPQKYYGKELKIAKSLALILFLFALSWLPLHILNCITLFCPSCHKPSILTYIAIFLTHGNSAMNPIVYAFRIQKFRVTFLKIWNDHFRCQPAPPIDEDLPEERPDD
Chain of Tyrosine-protein kinase Lck (Homo sapiens) (P06239 2-509 limits assumed): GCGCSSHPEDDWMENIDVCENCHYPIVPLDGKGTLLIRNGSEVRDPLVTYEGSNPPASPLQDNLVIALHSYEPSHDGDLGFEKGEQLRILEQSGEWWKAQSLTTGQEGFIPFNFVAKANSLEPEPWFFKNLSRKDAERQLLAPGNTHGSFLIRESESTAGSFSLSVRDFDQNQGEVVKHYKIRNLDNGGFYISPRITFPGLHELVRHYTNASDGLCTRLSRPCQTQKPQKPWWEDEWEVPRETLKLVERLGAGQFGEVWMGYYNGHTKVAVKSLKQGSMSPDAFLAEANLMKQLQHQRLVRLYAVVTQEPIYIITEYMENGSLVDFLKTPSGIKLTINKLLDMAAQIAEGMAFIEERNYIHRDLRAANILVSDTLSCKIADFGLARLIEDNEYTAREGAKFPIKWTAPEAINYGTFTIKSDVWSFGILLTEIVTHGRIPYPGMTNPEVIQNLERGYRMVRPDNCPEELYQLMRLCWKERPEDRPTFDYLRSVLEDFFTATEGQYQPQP

Turning to `O=C(NCc1ncc(C(F)(F)F)cc1Cl)c1ccc2c(c1)C1(CCS(=O)(=O)CC1)[C@H](C1CC1)N2S(=O)(=O)c1ccc(F)cc1` [BAY-784], the inhibition in data set [1] was 9%; in data set [2], -2%; in [3], 13%; in data set [4] it was 5%; in data set [5], -1%; in [7], 14%. Besides, the inhibition was -1% in data set [11]; 14% in data set [12]; 15% in data set [13]; 7% in data set [14]; 53% in [15]; 0% in [16]. Further, the inhibition in data set [17] is 2%; in [18], -4%; in data set [19], 22%; in [21] it was -1%. Besides, the inhibition at 10 µM in data set [6] is given as 32% (not active); in data set [9] it was -4% (not active); in data set [20] it was 4% (not active). The compound further gave a pKi in [8] of 5.59. Also, in data set [10], the inhibition at 60 min, 10 µM is listed as 3% (not active).

(Values after ChEMBL document CHEMBL4507266, “Data for DCP probe BAY-784” (2021).)
